Measured values published in ChEMBL document CHEMBL3108691, “Structural investigation of cycloheptathiophene-3-carboxamide derivatives targeting influenza virus polymerase assembly” (J Med Chem, 2013).
pEC50: −log10 of the molar value.

Tested on: Influenza A virus
Assay type: functional, organism-based, Influenza A virus (A/Parma/24/2009(H1N1))
Details: MDCK, 48 h

## NC(=O)c1ncn([C@@H]2O[C@H](CO)[C@@H](O)[C@H]2O)n1 [RIBAVIRIN]
  pEC50: 4.77
